US11225512B2, “Compositions and methods for ceramide-elevating therapeutic strategies” (University of New Hampshire, priority 2017, dated 2022)

B1: Gdf1: Recombinant human Growth Differentiation Factor 1, a BMP family member and TGF-beta signaling pathway intermediate (protein, listed as Homo sapiens)
chain: MPPPQQGPCGHHLLLLLALLLPSLPLTRAPVPPGPAAALLQALGLRDEPQGAPRLRPVPPVMWRLFRRRDPQETRSGSRRTSPGVTLQPCHVEELGVAGNIVRHIPDRGAPTRASEPASAAGHCPEWTVVFDLSAVEPAERPSRARLELRFAAAAAAAPEGGWELSVAQAGQGAGADPGPVLLRQLVPALGPPVRAELLGAAWARNASWPRSLRLALALRPRAPAACARLAEASLLLVTLDPRLCHPLARPRRDAEPVLGGGPGGACRARRLYVSFREVGWHRWVIAPRGFLANYCQGQCALPVALSGSGGPPALNHAVLRALMHAAAPGAADLPCCVPARLSPISVLFFDNSDNVVLRQYEDMVVDECGCR

Columns and labels:
ceramide neutralization = experiment: Decitabine treatment of FLT3^ITD transgenic mice, gene expression by qRT-PCR; type: in vivo
Protocol: Decitabine treatment downregulates ceramide neutralization in FLT3^ITD transgenic mice while augmenting gdf1 expression. 8-12 week old mice harboring an internal tandem duplication in the Flt3 gene were treated with the hypomethylating agent, decitabine, at 0.2 mg/kg, 3 times weekly, for 6 weeks. Results were generated using qRT-PCR and normalized to housekeeping genes (Actb, RpII, Tbp). […] Treatment with decitabine reversed ugcg expression and led to downregulation of cers1 as compared to control mice. […] As expected, other related genes are also affected by decitabine treatment.
Hypomethylating Treatment Reverses the Effect of Leukemogenic Transgenes on Ceramide Detoxification. Myeloid hematological malignancies such as AML and myelodysplastic syndrome (MDS) are frequently treated with hypomethylating agents such as decitabine. In particular, treatment and management of MDS commonly utilizes these strategies to attempt to prevent the transformation of this bone marrow failure-like condition to AML. In this experiment, we utilized aged FLT3^ITD transgenic mice treated with/without decitabine and monitored the changes to the expression of genes in the bone marrow that regulate the production of bioactive sphingolipids.

[1] = tested on: AML cell lines (HL-60, Kasumi-1 and Kasumi-3); experiment: Gdf1 treatment of AML cell lines, gene expression by qRT-PCR; type: cell-based; details: 50 ng/mL, 24 hours; HL-60, Kasumi-1, Kasumi-3; compared to untreated counterparts
Protocol: Gdf1 treatment of AML cell lines triggers downregulation of ceramide neutralization pathways. AML cell lines (HL-60, Kasumi-1 and Kasumi-3), were treated with recombinant human gdf1 at a concentration of 50 ng/mL for 24 hours. Results were obtained via qRT-PCR and compared to housekeeping genes (Actb, RpII).

[2] = tested on: hematopoietic progenitor cells; experiment: Gdf1 treatment of bone marrow, flow cytometry immunophenotyping of LT-HSC and MPP; type: cell-based; details: 50 ng/mL, 24 hours; bone marrow of hybrid mice
Protocol: Gdf1 treatment promotes quiescence exit of hematopoietic progenitor cells. Bone marrow of hybrid mice was treated with human recombinant Gdf1 at a concentration of 50 ng/mL for 24 hours. Flow cytometry was used in immunophenotyping cells into subpopulations of long-term hematopoietic stem cells (LT-HSC) and multipotent progenitor cells (MPP). LT-HSCs were defined as Lin−, C-kit+, Sca-1+, CD150+, CD48−. MPPs were defined as Lin−, C-kit+, Sca-1+, CD150−, CD48−. Quiescent cells were defined as CD34+.

| Molecule | gdf1 expression (ceramide neutralization; FLT3^ITD mice, decitabine 0.2 mg/kg, 3 times weekly, 6 weeks) | cers1 expression (ceramide neutralization; FLT3^ITD mice, decitabine 0.2 mg/kg, 3 times weekly, 6 weeks, compared to control mice) | ugcg expression (ceramide neutralization; FLT3^ITD mice, decitabine 0.2 mg/kg, 3 times weekly, 6 weeks, qRT-PCR normalized to Actb, RpII, Tbp) | relationship between gdf1 and either ugcg or sgms1 expression (ceramide neutralization; bone marrow of aged FLT3^ITD transgenic mice treated with/without decitabine) | cers1 expression [1] | ugcg expression [1] | cells bearing the CD34 marker (quiescent cells) in LT-HSC and MPP populations [2] | population of MPPs in the overall pool of analyzed cells [2] |
| --- | --- | --- | --- | --- | --- | --- | --- | --- |
| Nc1ncn([C@H]2C[C@H](O)[C@@H](CO)O2)c(=O)n1 [decitabine, 5-aza-2′-deoxycytidine] | upregulated | downregulation | reversed | inverse relationship | – | – | – | – |
| B1 | – | – | – | – | downregulated | downregulated | decrease | increase |
